Source: ChEMBL document CHEMBL2010690, “Identification and evaluation of apoptotic compounds from Garcinia oligantha” (Bioorg Med Chem Lett, 2012)
Calls of active or inactive are those of the source. The calls are words filed in the database; no cut-off is given here.

Tests used:
Format in all cases: functional, cell-based
HeLa [1] = experiment: Induction of apoptosis in human HeLa cells assessed as increase in PARP cleavage at 5 uM after 48 hrs by Western blotting analysis
HeLa [2] = experiment: Cytotoxicity against human HeLa cells after 72 hrs by MTT assay
HeLa C3 [3] = experiment: Induction of apoptosis in human HeLaC3 cells assessed as caspase-3 activation at 1 uM after 72 hrs by YFP/CFP-based FRET analysis
HeLa C3 [4] = experiment: Induction of apoptosis in human HeLaC3 cells assessed as caspase-3 activation at 10 uM after 72 hrs by YFP/CFP-based FRET analysis
HeLa C3 [5] = experiment: Induction of apoptosis in human HeLaC3 cells assessed as caspase-3 activation at 2.5 uM after 72 hrs by YFP/CFP-based FRET analysis
HeLa [6] = experiment: Induction of apoptosis in human HeLa cells assessed as increase in PARP cleavage at 5 uM after 24 hrs by Western blotting analysis
HeLa C3 [7] = experiment: Induction of apoptosis in human HeLaC3 cells assessed as caspase-3 activation at 5 uM after 72 hrs by YFP/CFP-based FRET analysis
HeLa [8] = experiment: Induction of apoptosis in human HeLa cells assessed as increase in PARP cleavage at 10 uM after 24 hrs by Western blotting analysis
HeLa [9] = experiment: Induction of apoptosis in human HeLa cells assessed as increase in PARP cleavage at 10 uM after 48 hrs by Western blotting analysis

SMILES | Activity (HeLa [1]) | IC50 (HeLa [2]) [nM] | Activity (HeLa C3 [3]) | Activity (HeLa C3 [4]) | Activity (HeLa C3 [5]) | Activity (HeLa [6]) | Activity (HeLa C3 [7]) | Activity (HeLa [8]) | Activity (HeLa [9])
CO[C@@]12C=C3C(=O)c4c(O)cc(O)c(CC=C(C)C)c4O[C@@]34[C@@H](C1)C(C)(C)O[C@@]4(CC=C(C)C)C2=O [GAUDICHAUDIONE H] | Active | 900 | inactive | Active | Active | Active | Active | – | –
CC(=O)CC1(O)C(=O)c2oc3cc4c(c(O)c3c(=O)c2C(CC=C(C)C)(CC=C(C)C)C1=O)C=CC(C)(C)O4 (stereo unspecified) [OLIGANTHIN D] | – | 7820 | inactive | Active | inactive | – | inactive | – | –
CC(C)=CCC1(CC=C(C)C)C(=O)C(O)=C(O)c2oc3cc4c(c(O)c3c(=O)c21)C=CC(C)(C)O4 [OLIGANTHIN A] | Active | 1580 | inactive | Active | Active | Active | Active | – | –
CC(C)=CCc1c(O)cc2oc3c(c(=O)c2c1O)C(CC=C(C)C)(CC=C(C)C)C(=O)C(O)(CC=C(C)C)C3=O (stereo unspecified) [OLIGANTHIN C] | – | 4150 | inactive | Active | inactive | – | inactive | – | –
CC(C)=CCC1(O)C(=O)c2oc3cc4c(c(O)c3c(=O)c2C(CC=C(C)C)(CC=C(C)C)C1=O)C=CC(C)(C)O4 (stereo unspecified) [OLIGANTHIN B] | – | 1520 | inactive | Active | inactive | – | Active | Active | Active
